The results in this text go back to DBAASP.

Converted amounts (≈) assume the structure as drawn. A value given as a limit tells only on which side of the number the result lay.

Holding throughout (assay): ≥ marks a high value that may be exact or a test limit, other limits are often not marked, values filed in µg/mL are converted to µM
The subject of assay [1] is Escherichia coli.
Assay [2] deals with Escherichia coli NCTC 10418.
Assay [3] relates to Bacillus cereus.
Assay [4] relates to Lactococcus lactis.
The test system of assay [5] is Staphylococcus aureus.
Assay [6] has as its system Staphylococcus aureus ATCC 6538.
Assay [7] deals with Pseudomonas aeruginosa ATCC 27853.
The test system of assay [8] is Sinorhizobium meliloti 102F34.
Assay [9] relates to Spiroplasma melliferum BC3.
Assay [10] relates to Escherichia coli K-12.
In assay [11] the test system is Salmonella typhimurium CIP 6062.
Assay [12] concerns Staphylococcus aureus ATCC 25923.
Assay [13] concerns Bacillus megaterium KM.
The test system of assay [14] is Acholeplasma laidlawii A-PG8.
Assay [15] relates to Micrococcus luteus A270.
The test system of assay [16] is Bacillus sp. ATCC 14412.
For assay [17], the system named is Cryptococcus neoformans Steroform C.
Assay [18] deals with Cryptococcus neoformans Steroform A.
In assay [19] the test system is Candida glabrata.
Assay [20] relates to Micrococcus luteus.
Assay [21] concerns Yarrowia lipolytica.
Assay [22] relates to Candida krusei.
For assay [23], the system named is Bacillus megaterium.
Assay [24] concerns Candida albicans A39.
In assay [25] the test system is Cryptococcus neoformans Steroform B.
Assay [26] has as its system Staphylococcus haemolyticus.
In assay [27] the test system is Cryptococcus neoformans Steroform D.
Assay [28] has as its system Xanthomonas vesicatoria DSM 50861.
The subject of assay [29] is Pseudomonas syringae pv. tomato DC3000.
Assay [30] concerns Pectobacterium carotovorum subsp. carotovorum DSM 30168.
Assay [31] concerns Clavibacter michiganensis subsp. michiganensis DSM 46294.
Assay [32] has as its system Pseudomonas corrugata DSM 7228.
Assay [33] deals with Staphylococcus aureus 90857.
The subject of assay [34] is Pseudomonas syringae pv. syringae DSM 10604.
The subject of assay [35] is Staphylococcus epidermidis.
Assay [36] relates to Staphylococcus aureus MR.
Assay [37] relates to Enterococcus faecalis ATCC 29212.
Assay [38] relates to Enterococcus faecalis NCTC 12203.
Assay [39] deals with Escherichia coli UB1005.
Assay [40] deals with Staphylococcus aureus ATCC 29213.
The subject of assay [41] is Escherichia coli ATCC 25922.

For the compound `CC[C@H](C)[C@H](NC(=O)[C@H](CCCCN)NC(=O)[C@H](CCCCN)NC(=O)[C@H](CC(C)C)NC(=O)[C@H](CC(=O)O)NC(=O)[C@@H](NC(=O)[C@@H](N)Cc1ccccc1)C(C)C)C(=O)N[C@@H](C)C(=O)N[C@@H](CC(N)=O)C(=O)N[C@H](C(=O)N[C@H](C(=O)N[C@@H](CC(N)=O)C(=O)N[C@@H](CO)C(=O)N[C@H](C(=O)N[C@@H](Cc1ccccc1)C(N)=O)[C@@H](C)CC)[C@@H](C)CC)[C@@H](C)CC` [FVDLKKIANIINSIF], the MIC (usually the least concentration at which growth counts as inhibited) in [1] was over 100 µM; in [2], at least 100 µM; in assay [3], 14.4 µM (≈ 25 µg/mL); in assay [4] it was 14.4 µM (≈ 25 µg/mL); in [5], 14.4 µM (≈ 25 µg/mL); in assay [6], 3.1 µM (≈ 5.38 µg/mL).

`CC[C@H](C)[C@H](NC(=O)CNC(=O)[C@H](CO)NC(=O)[C@H](C)NC(=O)[C@@H](NC(=O)[C@H](CCCCN)NC(=O)[C@H](CO)NC(=O)[C@H](CCSC)NC(=O)[C@H](Cc1c[nH]c2ccccc12)NC(=O)CN)[C@@H](C)CC)C(=O)NCC(=O)N[C@H](C(=O)N[C@@H](Cc1ccccc1)C(=O)N[C@@H](CC(C)C)C(=O)N[C@@H](CO)C(=O)NCC(=O)N[C@@H](CCSC)C(=O)N[C@@H](CCC(N)=O)C(=O)N[C@@H](CCC(N)=O)C(N)=O)[C@@H](C)O` [GWMSKIASGIGTFLSGMQQ]: the MIC in [7] was over 100 µM; in assay [8], 12.5 µM (≈ 25 µg/mL); in assay [9], at least 50 µM; in assay [10] it was 10 µM (≈ 20 µg/mL); in [11], at least 100 µM; in assay [12], over 100 µM. For the same compound, the MIC was determined as 3.12 µM (≈ 6.23 µg/mL) in assay [13], 12.5 µM (≈ 25 µg/mL) in assay [14] and 3 µM (≈ 6 µg/mL) in [15].

For the compound `CC[C@H](C)[C@H](NC(=O)[C@H](Cc1ccccc1)NC(=O)[C@@H](NC(=O)[C@@H]1CCCN1C(=O)[C@H](CCCN=C(N)N)NC(=O)[C@H](CO)NC(=O)[C@@H]1CCCN1C(=O)[C@H](CCCCN)NC(=O)[C@H](CCCN=C(N)N)NC(=O)[C@H](CC(C)C)NC(=O)[C@@H]1CCCN1C(=O)[C@H](CCCN=C(N)N)NC(=O)[C@@H](NC(=O)[C@H](Cc1ccc(O)cc1)NC(=O)CNC(=O)[C@H](CO)NC(=O)[C@H](CO)NC(=O)[C@@H](N)Cc1cnc[nH]1)[C@@H](C)O)[C@@H](C)CC)C(=O)N[C@@H](CCCN=C(N)N)C(=O)N1CCC[C@H]1C(=O)N[C@H](C(=O)NCC(N)=O)[C@@H](C)CC` [HSSGYTRPLRKPSRPIFIRPIG], the MIC in assay [1] was over 50 µM; in assay [16], 4.42 µM (≈ 11.2 µg/mL); in assay [17] it was 1.79 µM (≈ 4.53 µg/mL); in assay [3], at least 50 µM; in assay [18], 3.16 µM (≈ 8.02 µg/mL); in [19], 7.07 µM (≈ 17.9 µg/mL). The MIC in assay [20] is 8.84 µM (≈ 22.4 µg/mL); in assay [21] it was 3.16 µM (≈ 8.02 µg/mL); in assay [22], 7.07 µM (≈ 17.9 µg/mL); in assay [23] it was at least 50 µM; in [24] it was 17.7 µM (≈ 44.8 µg/mL); in [25] it was 3.16 µM (≈ 8.02 µg/mL). Besides, the minimal inhibitory concentration (MIC) in assay [26] was at least 50 µM; in assay [27], 1.13 µM (≈ 2.87 µg/mL).

With `CC(C)C[C@H](NC(=O)[C@H](CCCCN)NC(=O)[C@H](CCCN=C(N)N)NC(=O)[C@H](CCCN=C(N)N)NC(=O)[C@@H](N)CCCCN)C(=O)N[C@@H](C)C(=O)N[C@@H](Cc1ccccc1)C(=O)N[C@@H](CCCN=C(N)N)C(=O)N[C@@H](CC(C)C)C(=O)N[C@@H](Cc1ccccc1)C(=O)N[C@@H](CCCN=C(N)N)C(=O)N[C@@H](CC(C)C)C(=O)N[C@@H](Cc1ccccc1)C(=O)N[C@@H](CC(C)C)C(=O)N[C@@H](CCCCN)C(=O)N[C@@H](CC(C)C)C(=O)N[C@H](C(=O)N[C@@H](CC(C)C)C(=O)N[C@@H](CCCCN)C(=O)N[C@@H](CCCCN)C(N)=O)C(C)C` [KRRKLAFRLFRLFLKLVLKK], the MIC was 0.0971 µM (≈ 0.25 µg/mL) in assay [28]; 0.971 µM (≈ 2.5 µg/mL) in assay [29]; 3.88 µM (≈ 10 µg/mL) in assay [30]; 0.194 µM (≈ 0.5 µg/mL) in [31]; 0.971 µM (≈ 2.5 µg/mL) in assay [32]; 16 µM (≈ 41.2 µg/mL) in assay [33]. In assay [34], this compound showed an MIC of 1.94 µM (≈ 5 µg/mL).

As for `CC[C@H](C)[C@H](NC(=O)[C@H](CCCCN)NC(=O)[C@@H](N)Cc1c[nH]c2ccccc12)C(=O)N[C@H](C(=O)N[C@@H](Cc1ccccc1)C(=O)N[C@@H](Cc1c[nH]c2ccccc12)C(=O)N[C@@H](Cc1c[nH]c2ccccc12)C(=O)N[C@@H](CCCN=C(N)N)C(=O)N[C@@H](CCCN=C(N)N)C(N)=O)C(C)C` [WKIVFWWRR], the MIC was 0.182 µM (≈ 0.25 µg/mL) in assay [35]; 1.45 µM (≈ 2 µg/mL) in assay [1]; 0.363 µM (≈ 0.5 µg/mL) in assay [36]; 0.726 µM (≈ 0.999 µg/mL) in [37]; 0.726 µM (≈ 0.999 µg/mL) in [38]; 2.91 µM (≈ 4 µg/mL) in assay [39]. The MIC in assay [40] turned out to be 0.363 µM (≈ 0.5 µg/mL); in [41] it was 1.45 µM (≈ 2 µg/mL).
